Holding throughout (format): binding
The test system of experiment [1] is monoclonal anti-hcTnT antibody M11.7. Put plainly: ITEM-FOUR nano-ESI mass spectrometry: in-solution immune complex formation and gas-phase dissociation of M11.7 antibody–epitope peptide complexes. The conditions noted are these: for in-solution immune complex formation with M11.7 (binding in words): nano-ESI-MS, 200 mM ammonium acetate pH 6.7. On the procedure:
(§1) Immune complex-containing solutions of a wild-type epitope peptide and its corresponding antibody, e.g., P11 and M7, were prepared by mixing the two components in 200 mM ammonium acetate buffer (pH 6.7), ensuring a molar excess of the epitope peptide over the antibody to achieve binding saturation. After an incubation period of one hour, the entire mixture (~3 µL) was loaded into a nano-ESI emitter and electrosprayed. The mass spectrometer was configured to transmit only ion signals with m/z values above 3850, effectively eliminating signals from the unbound peptide (Figure 1A).
(§2) Antibody–peptide mixture solutions were prepared for ITEM FOUR experiments by mixing 5 µL of one antibody working solution with one assigned peptide working solution to generate antibody to peptide molar ratios of 1:2.1 for all solutions that contained the M7 antibody. For mixture solutions containing the M11.7 or the anti-TNFα antibody, 1:13 molar ratios were prepared. Antibodies were incubated together with peptides for at least one hour at room temperature prior to analysis.
(§3) Data acquisition for ITEM-FOUR experiments was performed as described in [18] with the Synapt G2S mass spectrometer (Waters MS-Technologies, Wilmslow, UK) and with the following instrumental settings: source temperature, 40 °C; capillary voltage, 1.0–1.3 kV; sample cone voltage, 130 V; source offset voltage, 130 V; trap gas flow (argon), 8.0 mL/min; helium gas: 20 bar. All mass spectra were acquired in positive-ion mode applying a mass window of m/z 200–8000. The quadrupole analyzer was used to block transmission of lower-molecular-mass ions: M1 = 5000 with dwell time of 25% and ramp time of 25%; M2 = 5000 with dwell time of 25% and ramp time of 25%; M3 = 5000. ΔCV in the TRAP collision cell was increased stepwise as follows: 0, 2, 6, 10, 14, 18, 22, 26, 30, 34, 40, 46, 52 and 58 V. The ion mobility separation mode was not used. All acquired scans during a given collision cell voltage difference setting were integrated to obtain an averaged spectrum from which ion intensities were extracted for ITEM-FOUR calculations. Data were acquired and processed with MassLynx software version 4.1 (Waters MS-Technologies). For exact time stamps of all measurements, refer to Table S2 in the Supplement (see also the deposited raw data supplement in the PRIDE directory). All mass spectra for each ΔCV setting were smoothed using the Savitzky-Golay method. Spectra of antibody solutions and antibody–peptide mixture solutions were smoothed using 30 cycles with a 15-mass unit window at the high mass end and at the low mass end with 3 cycles and a 2-mass unit window. All measurements were recorded in duplicate. The mass spectrometric raw data have been deposited via the ProteomeXchange Consortium in the PRIDE partner repository with the dataset identifier PXD058812 [70].
(§4) The Origin Pro 2023b (64-bit, OriginLab Corporation, Northampton, MA, USA) software package with an automation script for processing multiple datasets was used to graphically plot the extracted intensities of the ion signals of all relevant molecular entities (the immune complex with two bound peptides, the immune complex with one bound peptide, free antibodies, and free peptides) against their corresponding charge state for each collision cell voltage difference (ΔCV). Subsequently, Gaussian curve fittings were performed separately for each molecular entity. […] Iterations were performed for R2 values to be at least 0.91. Apices of Gaussian curves provided the intensities and the average m/z values for each molecular species. Intensity values of individual molecular entities (educts and products) were summed and normalized. Normalized intensities of educts and products from duplicate measurements were averaged.
(§5) The number of atoms from rituximab was used because the amino acid sequences of neither the M7 nor the M11.7 antibody were disclosed. […]

Experiment [2] has as its system monoclonal anti-hcTnT antibody M7. Put plainly: ITEM-FOUR nano-ESI mass spectrometry: in-solution immune complex formation and gas-phase dissociation of M7 antibody–epitope peptide complexes. The conditions noted are these: for in-solution immune complex formation with M7 (binding in words): nano-ESI-MS, 200 mM ammonium acetate pH 6.7, peptide:antibody 2.1:1 (epitope series) or 13:1 (negative controls); for dx (V): Boltzmann curve parameter; for dx (V) / ΔCV50 (V) / Slope (%/V): peptide:antibody 2.1:1; for dx (V) / ΔCV50 (V) / Final (%) / Initial (%) / Slope (%/V): averaged from two acquisitions; for KD m0g# [Ø]: apparent gas-phase dissociation constant, dimensionless number, extrapolated to ambient temperature; for Binding Type: class by difference of normalized product ion intensities over ΔCV; for ΔCV50 (V): collision cell voltage difference for 50% dissociation, Boltzmann fit; for Final (%): normalized product ion quantity at highest applied ΔCV, peptide:antibody 2.1:1, 200 mM ammonium acetate pH 6.7; for Initial (%): normalized product ion quantity at lowest applied ΔCV, peptide:antibody 2.1:1, 200 mM ammonium acetate pH 6.7, at least 1 h RT, nano-ESI, ΔCV 0-58 V; for ΔGm0g# / Tamb ΔSm0g# / ΔHm0g#: pseudo thermodynamic value of gas-phase complex dissociation; for ΔGm0g#: Ellingham diagram read at Tamb; for Tamb ΔSm0g# / ΔHm0g#: extrapolated to Tamb; for Slope (%/V): slope of Boltzmann curve. As to the method: as §1, §2, §3, §4, §5

In the next experiment the test system is anti-TNFα antibody. Put plainly: Nano-ESI-MS negative control: epitope peptide mixed with an unrelated antibody. The conditions noted are these: 200 mM ammonium acetate pH 6.7, peptide:antibody 13:1. On the procedure: Negative controls were investigated to confirm specificity of in-solution complex formations. […] To further rule out non-specific interactions for epitope peptide P11 or epitope peptide P21, either of them was separately mixed with an unrelated anti-TNFα antibody (Figures S46 and S47).
The anti-TNFα antibody stock solution (2 µg/µL) was prepared from lyophilized antibody powder (article number: MAS: 23720, ThermoFisher Scientific) and 200 mM ammonium acetate (pH 6.7).
as §2
Data acquisition for ITEM-FOUR experiments was performed as described in [18] with the Synapt G2S mass spectrometer (Waters MS-Technologies, Wilmslow, UK) and with the following instrumental settings: source temperature, 40 °C; capillary voltage, 1.0–1.3 kV; sample cone voltage, 130 V; source offset voltage, 130 V; trap gas flow (argon), 8.0 mL/min; helium gas: 20 bar. […] All measurements were recorded in duplicate. […]

[3] abbreviates: pseudo thermodynamic value of gas-phase complex dissociation, extrapolated to Tamb.

For AEQQRIRNEREKERQ [Peptide P21], the “dx (V)” value in experiment [1] (Boltzmann curve parameter, peptide:antibody 13:1, averaged from two acquisitions) is 5.77 V. Also, the “KD m0g# [Ø]” value in experiment [1] (apparent gas-phase dissociation constant, dimensionless number, extrapolated to ambient temperature) is 0.92 Ø. Besides, in experiment [1] (class by difference of normalized product ion intensities over ΔCV), the “Binding Type” value is “orthodox (The differences in normalized product ion intensity values were always greater than 15 percentage points)”. Moreover, in experiment [1] (collision cell voltage difference for 50% dissociation, Boltzmann fit, peptide:antibody 13:1, averaged from two acquisitions), the “ΔCV50 (V)” value came to 12.77 V. Further, the “Final (%)” value in experiment [1] (normalized product ion quantity at highest applied ΔCV, peptide:antibody 13:1, 200 mM ammonium acetate pH 6.7, averaged from two acquisitions) was determined as 96.29%. Moreover, the “Initial (%)” value in experiment [1] (normalized product ion quantity at lowest applied ΔCV, peptide:antibody 13:1, 200 mM ammonium acetate pH 6.7, at least 1 h RT, nano-ESI, ΔCV 0-58 V, averaged from two acquisitions) was 56.91%. Also, the “ΔGm0g#” value in experiment [1] (pseudo thermodynamic value of gas-phase complex dissociation, Ellingham diagram read at Tamb) is 0.0502 kcal/mol. Further, in experiment [1] (setting [3]), the “Tamb ΔSm0g#” value is 17.28 kcal/mol and the “ΔHm0g#” value is 17.34 kcal/mol. For the same sequence, the “Slope (%/V)” value in experiment [1] (slope of Boltzmann curve, peptide:antibody 13:1, averaged from two acquisitions) is recorded as 1.71 %/V. For the same sequence, the “in-solution immune complex formation with M7 (binding in words)” value in experiment [2] is “no immune complexes were detected”. The “in-solution immune complex formation with anti-TNFα antibody” value in the experiment on anti-TNFα antibody was “No immune complex signals were observed”.
Consider “GPSIVHRKSFHHHHHH [His-tag peptide, unrelated His-tag peptide used as negative control, reference compound]”, for which the “in-solution immune complex formation with M11.7 (binding in words)” value in experiment [1] (peptide:antibody 13:1) is “did not produce any immune complexes”. The “in-solution immune complex formation with M7 (binding in words)” value in experiment [2] is reported as “did not produce any immune complexes”.
As to LVSLKDRIERRQAER [Peptide P17], in experiment [2], the “dx (V)” value is reported as 6.46 V, the “KD m0g# [Ø]” value is listed as 0.62 Ø, the “Binding Type” value is on record as “orthodox (The differences in normalized product ion intensity values were always greater than 15 percentage points)” and the “ΔCV50 (V)” value is recorded as 24.61 V. For the same sequence, in experiment [2], the “Final (%)” value was 82.69%, the “Initial (%)” value is 56.18%, the “ΔGm0g#” value was 0.272 kcal/mol and the “Tamb ΔSm0g#” value was 8.824 kcal/mol. Further, in experiment [2], the “ΔHm0g#” value is 9.097 kcal/mol and the “Slope (%/V)” value turned out to be 1.03 %/V.
For LVSLKDRIERRRAER [Peptide P11], the “in-solution immune complex formation with M11.7 (binding in words)” value in experiment [1] (peptide:antibody 13:1) is “no immune complexes were detected”. In addition, in experiment [2], the “dx (V)” value was 6.69 V, the “KD m0g# [Ø]” value was 0.59 Ø, the “Binding Type” value is “orthodox (The differences in normalized product ion intensity values were always greater than 15 percentage points)” and the “ΔCV50 (V)” value turned out to be 25.27 V. In addition, in experiment [2], the “Final (%)” value turned out to be 84.36%, the “Initial (%)” value was determined as 56.43%, the “ΔGm0g#” value was found to be 0.306 kcal/mol and the “Tamb ΔSm0g#” value is 9.312 kcal/mol. Further, in experiment [2], the “ΔHm0g#” value was 9.62 kcal/mol and the “Slope (%/V)” value is on record as 1.04 %/V. Further, the “in-solution immune complex formation with anti-TNFα antibody” value with anti-TNFα antibody is listed as “No immune complex signals were observed”.
In the case of LVSLKDRIERRWAER [Peptide P14], in experiment [2], the “dx (V)” value is recorded as 4.33 V, the “KD m0g# [Ø]” value is given as 0.28 Ø, the “Binding Type” value is “orthodox (The differences in normalized product ion intensity values were always greater than 15 percentage points)” and the “ΔCV50 (V)” value was found to be 18.02 V. Moreover, in experiment [2], the “Final (%)” value stood at 93.86%, the “Initial (%)” value came to 54.37%, the “ΔGm0g#” value came out at 0.748 kcal/mol and the “Tamb ΔSm0g#” value was 21.26 kcal/mol. Further, in experiment [2], the “ΔHm0g#” value was 22.01 kcal/mol and the “Slope (%/V)” value was 2.28 %/V.
For the sequence LVSLKDRIKRRRAER [Peptide P12], in experiment [2], the “Binding Type” value was “non-binding (The differences in normalized product intensity values were less than 5 percentage points)”, the “in-solution immune complex formation with M7 (binding in words)” value was “no immune complex had formed in solution”, the “Final (%)” value worked out at 92.28% and the “Initial (%)” value is given as 89.38%. Moreover, in experiment [2] (listed as E138K), the “in-solution immune complex formation with M7 (binding in words)” value was “disrupted binding”.

The values above are taken from paper PMC12112476, “Mass Spectrometric ITEM-FOUR Analysis Reveals Coding Single-Nucleotide Polymorphisms in Human Cardiac Troponin T That Evade Detection by Sandwich ELISAs Which Use Monoclonal Antibodies M7 and M11.7 from the Elecsys Troponin T® Assay” (International Journal of Molecular Sciences, 2025).
